Measurements taken from patent US5962501A, “Enantiomer of carbazole derivative as 5-HT1-like agonists” (SmithKline Beecham, p.l.c., priority 1992, dated 1999).

Biological target: T1, 5-HT1 -like receptor (Oryctolagus cuniculus, UniProt P49144)
T1 construct: Arteries were then cut into ring segments (ca 4-5 mm wide) and set up for recording of isometric tension; from tissue; host or cells: rabbit basilar artery rings, endothelium removed
Test: 5-HT1-like receptor screen, rabbit isolated basilar artery (cumulative concentration-effect curves, isometric tension)
Type: cell-based
Conditions: in presence of ascorbate, indomethacin, cocaine, ketanserin and prazosin
Experimental: 5-HT1 -like Receptor Screen
In brief, rabbits were killed by overdose with anaesthetic (sodium pentobarbitone). The whole brain was quickly removed and immersed in ice cold modified Kreb's solution and the basilar artery removed with the aid of a dissecting microscope. […] The endothelium was removed by a gentle rubbing of the lumen with a fine metal wire. […] The arteries were then placed under a resting force of 3-4 mN maintained at 37° C. and the solution bubbled with 95% O2 /5% CO2.
After tests for initial reactivity with 90 mM KCl depolarising solution and for lack of acetylcholine-induced relaxation of 5-HT ([…]) precontraction, cumulative concentration-effect curves ([…]) to 5-HT were constructed in the presence of ascorbate […], cocaine […], indomethacin […], ketanserin […] and prazosin […].
Following a 45-60 min wash period, cumulative concentration-effect curves to the test compounds or 5-HT (as a time match control) were constructed in the presence of ascorbate, indomethacin, cocaine, ketanserin and prazosin.

T1 sequence (P49144 whole entry): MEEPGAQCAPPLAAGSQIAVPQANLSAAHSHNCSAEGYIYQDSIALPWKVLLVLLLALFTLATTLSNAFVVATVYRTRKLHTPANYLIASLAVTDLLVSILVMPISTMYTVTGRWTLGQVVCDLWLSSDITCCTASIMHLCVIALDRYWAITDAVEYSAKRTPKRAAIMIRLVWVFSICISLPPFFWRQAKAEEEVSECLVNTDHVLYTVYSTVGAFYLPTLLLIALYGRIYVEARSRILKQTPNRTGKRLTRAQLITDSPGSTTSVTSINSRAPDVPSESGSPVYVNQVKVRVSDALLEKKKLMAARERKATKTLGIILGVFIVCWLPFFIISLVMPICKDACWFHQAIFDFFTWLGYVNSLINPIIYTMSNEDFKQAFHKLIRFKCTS

How did the EC50 turn out when `CN[C@H]1CCc2[nH]c3ccc(C(N)=O)cc3c2C1` [Compound B, S-(-)-6-carboxamido-3-N-methylamino-1,2,3,4-tetrahydrocarbazole] was run?
The EC50 was > 2000 nM.
